Reference: the NIST ThermoML archive (doi:10.1021/je030133a)
Several values for one entry are separate records, joined by “and”; a condition that tells them apart may be missing. Equal entries are not always repeated.

Columns and labels:
[1] = 101.3 kPa, Liquid
[2] = xn = mol fraction of the nth substance listed; settings: 101.3 kPa, Liquid

CCCCO [butan-1-ol]
[1]
Settings | mass density [kg/m3] | viscosity
303.15 K | 805.7 | 2.282 mPa·s
308.15 K | 797.2 | 1.907 mPa·s and 1.895 mPa·s
313.15 K | 795.5 | 1.681 mPa·s

CCCCO [butan-1-ol] + ClC(Cl)(Cl)Cl
[2], x2 = 0
Settings | mass density [kg/m3] | viscosity [mPa·s]
303.15 K | 805.7 | 2.282
308.15 K | 797.2 | 1.907
313.15 K | 795.5 | 1.681

C1COCCO1 [1,4-dioxane] + ClC(Cl)(Cl)Cl
[2], x1 = 1
Settings | mass density [kg/m3] | viscosity [mPa·s]
303.15 K | 1022.3 | 1.099
308.15 K | 1016.7 | 1.03
313.15 K | 1012 | 0.9575

CCCCO [butan-1-ol] + C1COCCO1
[2], x2 = 0
Settings | mass density [kg/m3] | viscosity [mPa·s]
303.15 K | 805.7 | 2.282
308.15 K | 797.2 | 1.895
313.15 K | 795.5 | 1.681

ClC(Cl)(Cl)Cl [tetrachloromethane] + C1COCCO1
[2]
Settings | mass density, 303.15 K [kg/m3] | mass density, 308.15 K [kg/m3] | mass density, 313.15 K [kg/m3] | viscosity, 303.15 K [mPa·s] | viscosity, 308.15 K [mPa·s] | viscosity, 313.15 K [mPa·s]
x2 = 0 | 1580.6 | 1575.7 | 1570.9 | 0.8689 | 0.8307 | 0.807
x2 = 0.1116 | 1520.6 | 1517.3 | 1513.2 | 0.945 | 0.8954 | 0.8454
x2 = 0.2204 | 1462.3 | 1458.6 | 1455.1 | 0.9938 | 0.9391 | 0.8848
x2 = 0.3265 | 1405.3 | 1401.1 | 1396.9 | 1.036 | 0.9771 | 0.9244
x2 = 0.4299 | 1349 | 1344.8 | 1340.9 | 1.073 | 1.01 | 0.9531
x2 = 0.5307 | 1294.3 | 1290.5 | 1286.9 | 1.11 | 1.044 | 0.9892
x2 = 0.6291 | 1240.9 | 1236.2 | 1232.5 | 1.136 | 1.066 | 1.008
x2 = 0.7252 | 1187.4 | 1182.4 | 1177.9 | 1.145 | 1.066 | 0.9996
x2 = 0.7724 | 1161.1 | 1155.9 | 1150.9 | 1.145 | 1.063 | 0.9971
x2 = 0.819 | 1134.4 | 1128.5 | 1123.2 | 1.139 | 1.058 | 0.9881
x2 = 0.865 | 1107.7 | 1101.6 | 1096 | 1.131 | 1.052 | 0.9836
x2 = 0.9105 | 1081 | 1074.7 | 1069.2 | 1.123 | 1.05 | 0.9785
x2 = 0.9555 | 1052.6 | 1046.5 | 1041.2 | 1.117 | 1.046 | 0.9667

C1COCCO1 [1,4-dioxane]
[1]
Settings | mass density [kg/m3] | viscosity
303.15 K | 1022.3 | 1.099 mPa·s and 1.098 mPa·s
308.15 K | 1016.7 | 1.03 mPa·s
313.15 K | 1012 | 0.9575 mPa·s

C1COCCO1 [1,4-dioxane] + CCCCO
[2]
Settings | mass density, 303.15 K [kg/m3] | mass density, 308.15 K [kg/m3] | mass density, 313.15 K [kg/m3] | viscosity, 303.15 K [mPa·s] | viscosity, 308.15 K [mPa·s] | viscosity, 313.15 K [mPa·s]
x1 = 0.1066 | 826.5 | 818.4 | 816.8 | 2.011 | 1.683 | 1.522
x1 = 0.2116 | 847.6 | 839.9 | 837.9 | 1.635 | 1.362 | 1.281
x1 = 0.3151 | 868.6 | 861.3 | 859 | 1.37 | 1.165 | 1.094
x1 = 0.4171 | 889.9 | 882.7 | 880.2 | 1.243 | 1.081 | 0.9963
x1 = 0.5177 | 911.3 | 904.3 | 901.5 | 1.164 | 1.032 | 0.9565
x1 = 0.6169 | 932.8 | 926.2 | 923.1 | 1.093 | 1.007 | 0.9426
x1 = 0.6659 | 943.6 | 937.3 | 934 | 1.064 | 0.9903 | 0.9289
x1 = 0.7146 | 954.6 | 948.4 | 945.2 | 1.038 | 0.9768 | 0.919
x1 = 0.763 | 965.6 | 959.6 | 956.3 | 1.016 | 0.9543 | 0.9043
x1 = 0.8111 | 976.7 | 971 | 967.4 | 1.015 | 0.9484 | 0.9234
x1 = 0.8588 | 987.9 | 982.3 | 978.6 | 1.031 | 0.9507 | 0.9384
x1 = 0.9062 | 999.2 | 993.6 | 989.7 | 1.065 | 0.9793 | 0.9315
x1 = 1 | 1022.3 | 1016.7 | 1012 | 1.098 | 1.03 | 0.9575

ClC(Cl)(Cl)Cl [tetrachloromethane] + CCCCO
[2]
Settings | mass density, 303.15 K [kg/m3] | mass density, 308.15 K [kg/m3] | mass density, 313.15 K [kg/m3] | viscosity, 303.15 K [mPa·s] | viscosity, 308.15 K [mPa·s] | viscosity, 313.15 K [mPa·s]
x1 = 0.0954 | 885 | 876 | 873.9 | 2.028 | 1.698 | 1.498
x1 = 0.1918 | 964.8 | 955.5 | 953 | 1.708 | 1.444 | 1.293
x1 = 0.2891 | 1044.5 | 1034.7 | 1031.7 | 1.496 | 1.276 | 1.172
x1 = 0.3875 | 1123.5 | 1113.8 | 1110.1 | 1.356 | 1.157 | 1.069
x1 = 0.4869 | 1201.2 | 1191.8 | 1187.6 | 1.248 | 1.096 | 1.038
x1 = 0.5874 | 1277.3 | 1268.5 | 1264.2 | 1.157 | 1.052 | 0.9981
x1 = 0.6889 | 1352.2 | 1344.8 | 1340.9 | 1.069 | 1.004 | 0.9502
x1 = 0.7401 | 1389.9 | 1382.7 | 1378.8 | 1.025 | 0.9705 | 0.9211
x1 = 0.7915 | 1427.1 | 1420.2 | 1415.9 | 1.005 | 0.9552 | 0.8947
x1 = 0.8432 | 1463.6 | 1457.8 | 1454.2 | 0.9778 | 0.9211 | 0.8727
x1 = 0.8952 | 1501.2 | 1495.7 | 1491.8 | 0.9554 | 0.8975 | 0.8612
x1 = 0.9475 | 1538.9 | 1534.3 | 1530.5 | 0.9164 | 0.8787 | 0.8346
x1 = 1 | 1580.6 | 1575.7 | 1571.3 | 0.8689 | 0.8307 | 0.8072

ClC(Cl)(Cl)Cl [tetrachloromethane]
[1]
Settings | mass density | viscosity
303.15 K | 1580.6 kg/m3 | 0.8689 mPa·s
308.15 K | 1575.7 kg/m3 | 0.8307 mPa·s
313.15 K | 1570.9 kg/m3 and 1571.3 kg/m3 | 0.807 mPa·s and 0.8072 mPa·s
